Laboratory results reported in patent US20230374038A1, “MODULATORS OF CYSTIC FIBROSIS TRANSMEMBRANE CONDUCTANCE REGULATOR” (VERTEX PHARMACEUTICALS INCORPORATED, priority 2020, published 2023).
Like-named read-outs stand apart in the source and are kept apart here.

What was measured:
[1] = amide bond, 13-membered ring, DMF
[2] = target: T1, CFTR (Homo sapiens, UniProt P13569); test: Membrane Potential Dye, Enteroid Assay B; assay type: cell-based; conditions: for EC50: read-out: Ent. B EC50
Method in brief: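 Human intestinal enteroids seeded at 5000 cells/well, treated with compound 18-24 h at 37 °C, then loaded 25 min with methyl oxonol membrane-potential dye plus CaCC blockers. Chloride transport started in chloride-free buffer with 10 μM forskolin, 100 μM IBMX and 300 nM Compound III, read 15 min; expressed as % of triple-combination control.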

[3] = target: T1, CFTR; test: Membrane Potential Dye, Enteroid Assay A; assay type: cell-based; conditions: for EC50: read-out: Ent. A EC50
Experimental: Base medium (ADF+++) consisted of Advanced DMEM/Ham's F12, 2 mM Glutamax, 10 mM HEPES, 1 µg/mL penicillin/streptomycin.
Intestinal enteroid maintenance medium (IEMM) consisted of ADF+++, 1× B27 supplement, 1× N2 supplement, 1.25 mM N-acetyl cysteine, 10 mM Nicotinamide, 50 ng/mL hEGF, 10 nM Gastrin, 1 pg/mL hR-spondin-1, 100 ng/mL hNoggin, TGF-b type 1 inhibitor A-83-01, 100 μg/mL Primocin, […] P38 MAPK inhibitor SB202190.
Bath 1 Buffer consisted of 1 mM MgCl2, 160 mM NaCl, 4.5 mM KCl, 10 mM HEPES, 10 mM Glucose, 2 mM CaCl2).
Chloride Free Buffer consisted of 1 mM Magnesium Gluconate, 2 mM Calcium Gluconate, 4.5 mM Potassium Gluconate, 160 mM Sodium Gluconate, 10 mM HEPES, 10 mM Glucose.
Bath1 Dye Solution consisted of Bath 1 Buffer, 0.04% Pluronic F127, […] Methyl Oxonol, 30 μM CaCCinh-A01, 30 μM Chicago Sky Blue.
Chloride Free Dye Solution consisted of Chloride Free Buffer, 0.04% Pluronic F127, 20 μM Methyl Oxonol, 30 μM CaCCinh-A01, 30 μM Chicago Sky Blue.
Chloride Free Dye Stimulation Solution consisted of Chloride Free Dye Solution, 10 μM forskolin, 100 μM IBMX, and 300 nM Compound III.
Human intestinal epithelial enteroid cells were obtained from the Hubrecht Institute for Developmental Biology and Stem Cell Research, Utrecht, The Netherlands and expanded in T-Flasks as previously described (Dekkers J F, Wiegerinck C L, de Jonge H R, Bronsveld I, Janssens H M, de Winter-de Groot K M, Brandsma A M, de Jong N W M, Bijvelds M J C, Scholte B J, Nieuwenhuis E E S, van den Brink S, Clevers H, van der Ent C K, Middendorp S and M Beekman J M. A functional CFTR assay using primary cystic fibrosis intestinal organoids. Nat Med. 2013 July; 19(7):939-45.).
Cells were recovered in cell recovery solution, collected by centrifugation at 650 rpm for 5 min at 4° C., resuspended in TryPLE and incubated for 5 min at 37° C. Cells were then collected by centrifugation at 650 rpm for 5 min at 4° C. and resuspended in IEMM containing 10 μM ROCK inhibitor (RI). The cell suspension was passed through a 40 μm cell strainer and resuspended at 1×10^6 cells/mL in IEMM containing 10 μM RI. Cells were seeded at 5000 cells/well into multi-well plates and incubated for overnight at 37° C., 95% humidity and 5% CO2 prior to assay.
Enteroid cells were incubated with test compound in IEMM for 18-24 hours at 37° C., 95% humidity and 5% CO2. […] Briefly, cells were washed 5 times in Bath 1 Buffer. Bath 1 Dye Solution was added, and the cells were incubated for 25 min at room temperature. Following dye incubation, cells were washed 3 times in Chloride Free Dye Solution. Chloride transport was initiated by addition of Chloride Free Dye Stimulation Solution and the fluorescence signal was read for 15 min. […] Chloride transport was then expressed as a percentage of the chloride transport following treatment with 3 μM (S)—N-((6-aminopyridin-2-yl)sulfonyl)-6-(3-fluoro-5-isobutoxyphenyl)-2-(2,2,4-trimethylpyrrolidin-1-yl)nicotinamide, 3 μM (R)-1-(2,2-difluorobenzo[d][1,3]dioxol-5-yl)-N-(1-(2,3-dihydroxypropyl)-6-fluoro-2-(1-hydroxy-2-methylpropan-2-yl)-1H-indol-5-yl)cyclopropanecarboxamide and 300 nM acute N-[2,4-bis(1,1-dimethylethyl)-5-hydroxyphenyl]-1,4-dihydro-4-oxoquinoline-3-carboxamide triple combination control (% Activity).

T1 sequence (P13569 with tags, fused parts or gaps DEL508-508): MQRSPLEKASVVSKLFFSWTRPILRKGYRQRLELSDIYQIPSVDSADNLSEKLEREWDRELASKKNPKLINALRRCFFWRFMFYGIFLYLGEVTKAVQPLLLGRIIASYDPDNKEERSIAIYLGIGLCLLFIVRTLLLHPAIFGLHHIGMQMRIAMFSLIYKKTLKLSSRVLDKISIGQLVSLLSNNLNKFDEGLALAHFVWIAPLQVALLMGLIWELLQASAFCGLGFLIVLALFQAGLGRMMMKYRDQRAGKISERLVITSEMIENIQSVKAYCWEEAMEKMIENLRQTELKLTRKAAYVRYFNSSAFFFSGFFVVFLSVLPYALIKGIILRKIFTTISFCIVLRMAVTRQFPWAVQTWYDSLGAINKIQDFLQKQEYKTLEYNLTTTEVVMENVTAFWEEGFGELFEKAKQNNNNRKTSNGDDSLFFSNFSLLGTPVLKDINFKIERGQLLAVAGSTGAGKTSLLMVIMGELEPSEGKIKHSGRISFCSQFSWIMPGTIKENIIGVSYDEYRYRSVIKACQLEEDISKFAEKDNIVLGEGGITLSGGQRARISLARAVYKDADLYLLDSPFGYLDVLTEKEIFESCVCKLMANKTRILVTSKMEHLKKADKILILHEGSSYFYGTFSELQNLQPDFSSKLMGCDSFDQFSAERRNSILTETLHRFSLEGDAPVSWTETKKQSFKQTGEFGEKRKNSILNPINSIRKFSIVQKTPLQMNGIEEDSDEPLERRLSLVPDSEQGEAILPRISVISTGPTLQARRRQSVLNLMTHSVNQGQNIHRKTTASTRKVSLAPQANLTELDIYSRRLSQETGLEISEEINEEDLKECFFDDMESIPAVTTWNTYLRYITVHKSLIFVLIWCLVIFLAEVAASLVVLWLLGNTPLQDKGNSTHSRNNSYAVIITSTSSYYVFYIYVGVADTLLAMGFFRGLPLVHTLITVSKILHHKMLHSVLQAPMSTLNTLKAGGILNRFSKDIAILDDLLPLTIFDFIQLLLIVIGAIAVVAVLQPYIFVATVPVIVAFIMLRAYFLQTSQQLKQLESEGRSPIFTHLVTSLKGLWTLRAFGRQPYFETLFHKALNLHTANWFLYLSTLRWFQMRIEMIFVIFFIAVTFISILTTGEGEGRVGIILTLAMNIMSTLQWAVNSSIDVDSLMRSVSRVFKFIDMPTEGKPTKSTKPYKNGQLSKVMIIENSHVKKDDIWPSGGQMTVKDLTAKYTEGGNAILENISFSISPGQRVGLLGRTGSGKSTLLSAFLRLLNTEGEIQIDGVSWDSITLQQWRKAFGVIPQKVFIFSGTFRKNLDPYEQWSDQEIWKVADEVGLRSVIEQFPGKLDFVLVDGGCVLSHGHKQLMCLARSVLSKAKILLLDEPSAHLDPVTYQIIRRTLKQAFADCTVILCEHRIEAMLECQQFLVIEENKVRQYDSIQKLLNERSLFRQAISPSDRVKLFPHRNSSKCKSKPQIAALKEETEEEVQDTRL

Row | Compound | Ent. B Max Activity [2] | EC50 [2] | Ent. A Max Activity [3] | EC50 [3] | other results
1 | Cc1cccc(C)c1-c1nc2nc(c1C)OC[C@@H](CC(C)(C)C)N(C1CC3(C1)CC(C(C)(C)O)C3)C(=O)c1cccc(c1)S(=O)(=O)N2 (some centres unmarked) |  |  |  |  | ring closure, yield after HPLC ([1]; from Cc1cccc(C)c1-c1nc(NS(=O)(=O)c2cccc(C(=O)O)c2)nc(OC[C@@H](CC(C)(C)C)NC2CC3(C2)CC(C(C)(C)O)C3)c1C, HATU/DIEA, 28.7 mM, 16.0 h): 6%
2 | Cc1cccc(C)c1-c1nc2nc(c1C)OC[C@@H](CC(C)(C)C)N(C1CC3(CC(NC(=O)OC(C)(C)C)C3)C1)C(=O)c1cccc(c1)S(=O)(=O)N2 (some centres unmarked) |  |  |  |  | ring closure, yield after HPLC ([1]; from Cc1cccc(C)c1-c1nc(NS(=O)(=O)c2cccc(C(=O)O)c2)nc(OC[C@@H](CC(C)(C)C)NC2CC3(CC(NC(=O)OC(C)(C)C)C3)C2)c1C, HATU/DIEA, 14.3 mM, 72.0 h): 62%
3 | Cc1cccc(COC(C)C)c1-c1nc2nc(c1C)OC[C@@H](CC(C)(C)C)N(Cc1ncc(N3CCC(C)(C)C3)cn1)C(=O)c1cccc(c1)S(=O)(=O)N2 |  |  |  |  | ring closure, yield after HPLC ([1]; from Cc1cccc(COC(C)C)c1-c1nc(NS(=O)(=O)c2cccc(C(=O)O)c2)nc(OC[C@@H](CC(C)(C)C)NCc2ncc(N3CCC(C)(C)C3)cn2)c1C, CDMT/NMM, 11.0 mM, 5.0 h, 2 steps): 13%
4 | Cc1cccc(C)c1-c1nc2nc(c1OC(C)C)OC[C@@H](CC(C)C)N(C1CC3(CCN(C)CC3)C1)C(=O)c1cccc(c1)S(=O)(=O)N2 [Compound 176] | +++ (+++ is >60%) | < 1000 nM | +++ (+++ is >60%) | < 1000 nM | 
5 | (5P,11R)-6-(2-cyclopropyl-6-methyl-phenyl)-11-(2,2-dimethylpropyl)-7-methyl-12-[(5-morpholinopyrimidin-2-yl)methyl]-2,2-dioxo-9-oxa-2^6-thia-3,5,12,19-tetrazatricyclo[12.3.1.14,8]nonadeca-1(18),4(19),5,7,14,16-hexaen-13-one |  |  |  |  | ring closure, yield after HPLC ([1]; CDMT/NMM, 122.0 mM): 25%
6 | Cc1cccc(CC(C)(C)C)c1-c1nc2nc(c1C)OC[C@@H](CC(C)(C)C)N(Cc1ncc(N3CCC(C)(C)C3)cn1)C(=O)c1cccc(c1)S(=O)(=O)N2 |  |  |  |  | ring closure, yield after HPLC ([1]; from Cc1cccc(CC(C)(C)C)c1-c1nc(NS(=O)(=O)c2cccc(C(=O)O)c2)nc(OC[C@@H](CC(C)(C)C)NCc2ncc(N3CCC(C)(C)C3)cn2)c1C, CDMT/NMM, 11.0 mM, 16.0 h, 2 steps): 11%; ring closure, yield after HPLC ([1]; from Cc1cccc(CC(C)(C)C)c1-c1nc(NS(=O)(=O)c2cccc(C(=O)O)c2)nc(OC[C@@H](CC(C)(C)C)NCc2ncc(N3CCC(C)(C)C3)cn2)c1C, CDMT/NMM, 12.0 mM, 16.0 h, 2 steps): 7%
7 | Cc1cccc(C)c1-c1nc2nc(c1C)OC[C@@H](CC(C)C)N(C1CC(OC(C)C)C1)C(=O)c1cccc(c1)S(=O)(=O)N2 (single isomer, unassigned; diastereomer 1) |  |  |  |  | ring closure, yield after HPLC ([1]; from Cc1cccc(C)c1-c1nc(NS(=O)(=O)c2cccc(C(=O)O)c2)nc(OC[C@@H](CC(C)C)NC2CC(OC(C)C)C2)c1C, HATU/DIEA, 25.0 °C, 2 steps): 9%
8 | CC(C)C[C@@H]1COc2nc(nc(-c3ccccc3C(C)C)c2C(F)(F)F)NS(=O)(=O)c2cccc(c2)C(=O)N1 [Compound 164, (11R)-11-Isobutyl-6-(2-isopropylphenyl)-2,2-dioxo-7-(trifluoromethyl)-9-oxa-2λ^6-thia-3,5,12,19-tetrazatricyclo[12.3.1.14,8]nonadeca-1(18),4,6,8(19),14,16-hexaen-13-one] | +++ (+++ is >60%) | < 1000 nM | +++ (+++ is >60%) | < 1000 nM | 
9 | Cc1cccc(C)c1-c1nc2nc(c1OC(C)C)OC[C@@H](CC(C)C)N(C1CC3(CCN(C(=O)OC(C)(C)C)CC3)C1)C(=O)c1cccc(c1)S(=O)(=O)N2 [Compound 177] | +++ (+++ is >60%) | < 1000 nM | +++ (+++ is >60%) | < 1000 nM | 
10 | CCc1c2nc(nc1-c1c(C)cccc1OC)NS(=O)(=O)c1cccc(c1)NC(=O)c1cccc(c1)O2 [Compound 6, 4-Ethyl-5-(2-methoxy-6-methylphenyl)-2-oxa-9λ^6-thia-6,8,15,23-tetraazatetracyclo[15.3.1.13,7.110,14]tricosa-1(21),3,5,7(23),10(22),11,13,17,19-nonaene-9,9,16-trione] |  |  | ++ (++ is 30-60%) | 1000 to 3000 nM | 
11 | CCc1c2nc(nc1-c1c(C)cccc1C)NS(=O)(=O)c1cccc(c1)C(=O)N[C@H](CC(C)C)CO2 [Compound 190] | +++ (+++ is >60%) | < 1000 nM | +++ (+++ is >60%) | < 1000 nM | 
12 | CCc1c2nc(nc1-c1c(C)cccc1C)NS(=O)(=O)c1cccc(c1)C(=O)NCC(c1ccc(C(C)(C)C)cc1)O2 (centres unmarked) [Compound 178] |  |  | +++ (+++ is >60%) | < 1000 nM | 
13 | Cc1ncccc1-c1nc2nc(c1C(C)(C)C)OC1CN(Cc3ccccc31)C(=O)c1cccc(c1)S(=O)(=O)N2 (centres unmarked) [Compound 45] |  |  | + (+ is <30%) |  | 
14 | CCc1c2nc(nc1-c1c(C)cccc1C)NS(=O)(=O)c1cccc(c1)C(=O)N(C1CC3(CCN(C(=O)OC(C)(C)C)CC3)C1)[C@H](CC(C)C)CO2 [Compound 158, tert-butyl 2-[(11R)-6-(2,6-dimethylphenyl)-7-ethyl-11-isobutyl-2,2,13-trioxo-9-oxa-2λ^6-thia-3,5,12,19-tetrazatricyclo[12.3.1.14,8]nonadeca-1(17),4(19),5,7,14(18),15-hexaen-12-yl]-7-azaspiro[3.5]nonane-7-carboxylate] | +++ (+++ is >60%) | < 1000 nM | +++ (+++ is >60%) | < 1000 nM | 
15 | CCc1c2nc(nc1-c1c(C)cccc1C)NS(=O)(=O)c1cccc(c1)C(=O)N(C1CC3(CCN(C)CC3)C1)[C@H](CC(C)C)CO2 [Compound 159, (11R)-6-(2,6-Dimethylphenyl)-7-ethyl-11-isobutyl-12-(7-methyl-7-azaspiro[3.5]nonan-2-yl)-2,2-dioxo-9-oxa-2λ^6-thia-3,5,12,19-tetrazatricyclo[12.3.1.14,8]nonadeca-1(17),4(19),5,7,14(18),15-hexaen-13-one] | +++ (+++ is >60%) | < 1000 nM | +++ (+++ is >60%) | < 1000 nM | 
16 | CCc1c2nc(nc1-c1cccnc1C)NS(=O)(=O)c1cccc(c1)NC(=O)c1cccc(c1)O2 [Compound 7, 4-Ethyl-5-(2-methylpyridin-3-yl)-2-oxa-9λ^6-thia-6,8,15,23-tetraazatetracyclo[15.3.1.13,7.110,14]tricosa-1(21),3,5,7(23),10(22),11,13,17,19-nonaene-9,9,16-trione] |  |  | + (+ is <30%) |  | 
17 | Cc1ncccc1-c1nc2nc(c1C(F)(F)F)OC1CN(Cc3ccccc31)C(=O)c1cccc(c1)S(=O)(=O)N2 (centres unmarked) [Compound 40, 12-(2-Methyl-3-pyridyl)-8,8-dioxo-13-(trifluoromethyl)-15-oxa-8λ^6-thia-1,9,11,25-tetrazapentacyclo[14.7.1.13,7.110,14.017,22]hexacosa-3,5,7(26),10(25),11,13,17(22),18,20-nonaen-2-one] |  |  | + (+ is <30%) |  | 
